Calls of active or inactive are those of the source.
Legend:
[1] = growth suppression of beta-catenin-knockout colon cells, dose response, cell-based, HCT116, human colon tumor (AID 1045); assay type: functional;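 also: HCT116 colon tumor cells with beta catenin knocked out; cells exposed to compound for 60 hours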
[2] = growth suppression of PTEN-null colon cells, dose response, cell-based, HCT116 PTEN knockout (AID 1047); assay type: functional;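 also: HCT116 colon tumor cells with PTEN knocked out; cells exposed to compound for 60 hours before readout; potency for loss of cell viability measured by luminescence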
[3] = test system: Vero; assay: host cell cytotoxicity of antiviral hits, dose response, cytotoxicity control for West Nile virus antiviral project, secondary assay (AID 1650); assay type: functional; settings: Chlorocebus sabaeus
[4] = target: T1, Epstein-Barr nuclear antigen 1 (Epstein-Barr virus (strain B95-8) (HHV-4) (Human herpesvirus 4), UniProt P03211); assay: EBNA-1 inhibitors, dose response, biochemical, fluorescence polarization, 1536-well (AID 2381); parameters: species or system human gammaherpesvirus 4;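 also: fluorescence polarization of a Cy5 DNA probe bound by EBNA-1 protein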
T1 sequence (P03211 whole entry): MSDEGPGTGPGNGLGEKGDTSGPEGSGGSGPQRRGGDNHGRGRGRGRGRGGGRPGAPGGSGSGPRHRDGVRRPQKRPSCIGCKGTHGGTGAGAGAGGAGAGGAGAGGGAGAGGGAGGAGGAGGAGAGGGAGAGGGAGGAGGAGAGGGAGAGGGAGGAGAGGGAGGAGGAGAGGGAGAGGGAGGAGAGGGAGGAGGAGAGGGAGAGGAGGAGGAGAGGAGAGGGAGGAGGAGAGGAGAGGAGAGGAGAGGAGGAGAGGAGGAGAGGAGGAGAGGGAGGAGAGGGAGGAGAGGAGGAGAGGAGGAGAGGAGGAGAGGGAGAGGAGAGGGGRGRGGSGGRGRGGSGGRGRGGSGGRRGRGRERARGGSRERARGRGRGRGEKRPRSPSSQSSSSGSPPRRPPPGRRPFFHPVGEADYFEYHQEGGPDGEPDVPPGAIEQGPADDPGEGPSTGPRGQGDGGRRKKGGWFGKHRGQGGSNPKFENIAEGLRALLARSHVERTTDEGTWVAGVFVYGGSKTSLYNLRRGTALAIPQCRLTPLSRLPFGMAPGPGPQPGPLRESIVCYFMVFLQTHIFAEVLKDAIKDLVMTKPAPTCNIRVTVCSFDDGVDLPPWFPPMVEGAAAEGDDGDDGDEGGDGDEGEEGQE

[5] = target: T2, Lytic switch protein BZLF1 (Epstein-Barr virus (strain B95-8) (HHV-4) (Human herpesvirus 4), UniProt P03206); assay: EBV ZTA inhibitors, dose response, counter-screen for EBNA-1 inhibitor project, biochemical, fluorescence polarization, Epstein-Barr virus, 1536-well (AID 2377); parameters: species or system human gammaherpesvirus 4;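 also: fluorescence polarization of Cy5-labelled ZRE DNA probe bound by purified Zta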
T2 sequence (P03206 whole entry): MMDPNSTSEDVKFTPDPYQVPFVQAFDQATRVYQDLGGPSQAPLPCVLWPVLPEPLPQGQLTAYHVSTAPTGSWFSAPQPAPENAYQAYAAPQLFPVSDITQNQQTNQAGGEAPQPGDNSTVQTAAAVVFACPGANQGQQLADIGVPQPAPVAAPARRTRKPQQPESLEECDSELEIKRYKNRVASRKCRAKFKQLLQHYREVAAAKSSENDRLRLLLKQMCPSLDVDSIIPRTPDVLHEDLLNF

[6] = target: Luciferin 4-monooxygenase (Photinus pyralis, UniProt P08659); assay: Counter Screen for Luciferase-based Assay Positives. [Related pubchem assays: 620, 618, 411 ]
[7] = target: Nonstructural protein 1 (Influenza A virus, UniProt Q194T2); assay type: functional, Influenza A virus (A/California/07/2009(H1N1))
[8] = test system: HT-1080; assay: cytotoxicity in HT1080 fibrosarcoma cells, cell-based, fluorescence readout (AID 620); assay type: functional; settings: Homo sapiens
[9] = target: T3, Microphthalmia-associated transcription factor (Homo sapiens, UniProt O75030); assay: TRPM1 promoter luciferase signal decrease, dose response, MITF inhibitor project, cell-based, SK-MEL-5, cherry-picked, set 3 (AID 493073); assay type: functional
T3 sequence (O75030 whole entry): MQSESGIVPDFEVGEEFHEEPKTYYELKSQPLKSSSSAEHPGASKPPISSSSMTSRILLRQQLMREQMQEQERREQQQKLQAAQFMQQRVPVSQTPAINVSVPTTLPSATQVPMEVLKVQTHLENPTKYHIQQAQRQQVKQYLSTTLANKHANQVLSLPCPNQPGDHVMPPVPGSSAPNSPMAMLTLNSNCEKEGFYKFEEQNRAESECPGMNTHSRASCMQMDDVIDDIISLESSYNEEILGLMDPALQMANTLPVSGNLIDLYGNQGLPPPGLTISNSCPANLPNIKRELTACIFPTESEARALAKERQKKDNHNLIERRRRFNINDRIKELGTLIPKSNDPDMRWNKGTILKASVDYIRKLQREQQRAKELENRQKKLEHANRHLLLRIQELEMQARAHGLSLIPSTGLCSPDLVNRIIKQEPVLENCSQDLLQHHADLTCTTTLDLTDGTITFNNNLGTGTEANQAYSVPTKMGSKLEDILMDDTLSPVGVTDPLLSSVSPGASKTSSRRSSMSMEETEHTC

[10] = target: T4, Ubiquitin-conjugating enzyme E2 N (Homo sapiens, UniProt P61088); assay type: functional;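 also: Dose-response confirmation in a TR-FRET assay detecting UBC13-driven polyubiquitin chain formation, inhibition measured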
T4 sequence (P61088 whole entry): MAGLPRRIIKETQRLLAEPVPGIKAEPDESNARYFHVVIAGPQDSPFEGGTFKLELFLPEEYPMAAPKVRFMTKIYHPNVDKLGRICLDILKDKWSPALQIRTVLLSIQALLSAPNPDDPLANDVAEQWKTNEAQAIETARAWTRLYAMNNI

[11] = target: Estrogen receptor beta (Homo sapiens, UniProt Q92731);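 also: recombinant ER-beta bound to coactivator SRC1 peptide in presence of estradiol agonist; inhibitors block coactivator peptide binding and lower the FRET signal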
[12] = target: T5, Estrogen receptor (Homo sapiens, UniProt P03372);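 also: potency for inhibiting coactivator peptide recruitment to the receptor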
T5 sequence (P03372 whole entry): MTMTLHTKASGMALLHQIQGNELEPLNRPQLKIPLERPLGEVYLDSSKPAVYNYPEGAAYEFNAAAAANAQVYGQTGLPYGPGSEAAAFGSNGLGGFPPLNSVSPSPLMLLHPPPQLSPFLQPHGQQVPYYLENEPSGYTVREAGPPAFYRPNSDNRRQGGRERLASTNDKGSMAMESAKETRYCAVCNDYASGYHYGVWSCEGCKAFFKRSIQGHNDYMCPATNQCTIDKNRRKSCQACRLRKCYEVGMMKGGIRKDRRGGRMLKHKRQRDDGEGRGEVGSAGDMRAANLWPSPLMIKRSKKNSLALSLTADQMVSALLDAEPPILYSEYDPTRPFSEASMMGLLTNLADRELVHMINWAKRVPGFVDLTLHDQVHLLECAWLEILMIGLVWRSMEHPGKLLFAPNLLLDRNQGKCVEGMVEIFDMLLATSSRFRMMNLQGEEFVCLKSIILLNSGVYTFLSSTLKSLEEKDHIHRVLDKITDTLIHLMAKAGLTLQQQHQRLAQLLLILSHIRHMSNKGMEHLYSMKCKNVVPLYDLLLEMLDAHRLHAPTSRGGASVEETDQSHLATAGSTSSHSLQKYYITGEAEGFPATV

[13] = target: T6, Aryl hydrocarbon receptor (Homo sapiens, UniProt P35869); assay: Luminescence-based cell-based high throughput dose response assay for activators of the Aryl Hydrocarbon Receptor (AHR). [Related pubchem assays: 2796 (Primary screen (AHR activators in singlicate)), 2845 (Confirmation screen (AHR activators in triplicate)), 434939 (Counterscreen (PXR activators in triplicate)), 2804 (Summary (AHR activators))]; assay type: ADME
T6 sequence (P35869 whole entry): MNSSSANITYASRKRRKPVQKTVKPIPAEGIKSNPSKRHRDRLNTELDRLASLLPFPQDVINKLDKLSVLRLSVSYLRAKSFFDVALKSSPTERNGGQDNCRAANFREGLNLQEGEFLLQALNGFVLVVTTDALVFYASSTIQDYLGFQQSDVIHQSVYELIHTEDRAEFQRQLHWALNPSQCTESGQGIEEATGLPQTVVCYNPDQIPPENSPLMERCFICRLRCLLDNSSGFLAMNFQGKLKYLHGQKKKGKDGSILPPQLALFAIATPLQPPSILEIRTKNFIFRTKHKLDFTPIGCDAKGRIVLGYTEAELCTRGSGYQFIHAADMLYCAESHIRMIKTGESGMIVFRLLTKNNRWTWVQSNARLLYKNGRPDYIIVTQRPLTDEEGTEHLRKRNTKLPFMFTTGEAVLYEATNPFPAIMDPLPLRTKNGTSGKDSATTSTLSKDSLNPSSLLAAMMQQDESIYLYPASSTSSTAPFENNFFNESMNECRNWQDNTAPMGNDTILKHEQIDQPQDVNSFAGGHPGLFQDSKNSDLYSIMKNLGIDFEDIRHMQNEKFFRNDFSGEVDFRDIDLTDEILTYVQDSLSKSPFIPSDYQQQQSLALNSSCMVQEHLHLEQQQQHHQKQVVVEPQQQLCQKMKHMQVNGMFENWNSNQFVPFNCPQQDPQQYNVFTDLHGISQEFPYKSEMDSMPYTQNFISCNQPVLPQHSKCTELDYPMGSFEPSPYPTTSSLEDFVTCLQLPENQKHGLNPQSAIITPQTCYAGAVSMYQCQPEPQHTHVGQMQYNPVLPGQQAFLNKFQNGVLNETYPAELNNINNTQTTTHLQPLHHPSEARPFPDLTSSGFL

[14] = LGR2 antagonists, dose response, cell-based, HEK293, CRE-luciferase reporter, cherry pick, set 2 (AID 743343); assay type: functional;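 also: transfected cells were stimulated with diluted bursicon conditioned medium after compound addition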
[15] = target: T7, Heat shock factor protein 1 (Mus musculus, UniProt P38532); assay: inhibition of MG132-induced HSE-luciferase signal, confirmation, cell-based, NIH3T3, luminescence, dose retest (AID 2382); assay type: functional;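 also: NIH3T3 fibroblasts with HSF1-driven luciferase reporter stressed by proteasome inhibitor MG132; luminescence from HSF1-driven luciferase expression after 8 hours of MG132 stress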
T7 sequence (P38532 whole entry): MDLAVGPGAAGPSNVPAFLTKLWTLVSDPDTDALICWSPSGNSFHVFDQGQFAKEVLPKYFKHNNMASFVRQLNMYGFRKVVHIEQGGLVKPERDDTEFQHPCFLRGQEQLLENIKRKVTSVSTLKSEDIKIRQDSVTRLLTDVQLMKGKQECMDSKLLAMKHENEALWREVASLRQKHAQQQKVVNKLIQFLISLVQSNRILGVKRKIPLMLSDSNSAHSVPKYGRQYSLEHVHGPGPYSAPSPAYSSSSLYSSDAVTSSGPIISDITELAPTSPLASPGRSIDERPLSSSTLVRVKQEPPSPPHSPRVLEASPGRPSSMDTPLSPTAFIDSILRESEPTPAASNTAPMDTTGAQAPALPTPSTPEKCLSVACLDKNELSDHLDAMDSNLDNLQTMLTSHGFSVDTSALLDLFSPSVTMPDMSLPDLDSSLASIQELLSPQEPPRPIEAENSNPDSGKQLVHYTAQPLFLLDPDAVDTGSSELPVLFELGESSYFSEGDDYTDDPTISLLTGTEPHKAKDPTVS

[16] = A549 cell cytotoxicity, dose response, cytotoxicity control, plate reader, cherry-pick, antagonist series (AID 743412); assay type: functional, cell-based
[17] = MC4R antagonists, dose response, counter-screen for LGR2 antagonist project, cell-based, plate reader, cherry pick (AID 743444); assay type: functional;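 also: transfected HEK 293 cells stimulated with alpha-MSH peptide; potency of inhibitors of the alpha-MSH evoked signal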
[18] = HepG2 cell cytotoxicity, dose response, cytotoxicity control, plate reader, cherry-pick, antagonist series (AID 743416); assay type: functional, cell-based

Luciferin 4-monooxygenase, sequence (P08659 whole entry): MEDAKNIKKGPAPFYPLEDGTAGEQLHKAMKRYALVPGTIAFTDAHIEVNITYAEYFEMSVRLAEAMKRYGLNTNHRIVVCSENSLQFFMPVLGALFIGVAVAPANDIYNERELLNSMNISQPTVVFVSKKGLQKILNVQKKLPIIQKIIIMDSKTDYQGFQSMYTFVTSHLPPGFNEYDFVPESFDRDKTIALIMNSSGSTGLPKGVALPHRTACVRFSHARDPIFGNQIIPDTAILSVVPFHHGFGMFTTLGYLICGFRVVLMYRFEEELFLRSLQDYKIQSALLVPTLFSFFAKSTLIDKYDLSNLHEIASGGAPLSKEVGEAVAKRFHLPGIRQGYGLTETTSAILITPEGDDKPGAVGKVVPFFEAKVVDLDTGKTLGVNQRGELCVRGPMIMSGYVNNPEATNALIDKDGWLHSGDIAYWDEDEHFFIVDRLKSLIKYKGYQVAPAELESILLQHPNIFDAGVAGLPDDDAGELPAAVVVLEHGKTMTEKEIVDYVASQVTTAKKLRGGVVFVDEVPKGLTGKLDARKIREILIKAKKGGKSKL
Estrogen receptor beta, sequence (Q92731 whole entry): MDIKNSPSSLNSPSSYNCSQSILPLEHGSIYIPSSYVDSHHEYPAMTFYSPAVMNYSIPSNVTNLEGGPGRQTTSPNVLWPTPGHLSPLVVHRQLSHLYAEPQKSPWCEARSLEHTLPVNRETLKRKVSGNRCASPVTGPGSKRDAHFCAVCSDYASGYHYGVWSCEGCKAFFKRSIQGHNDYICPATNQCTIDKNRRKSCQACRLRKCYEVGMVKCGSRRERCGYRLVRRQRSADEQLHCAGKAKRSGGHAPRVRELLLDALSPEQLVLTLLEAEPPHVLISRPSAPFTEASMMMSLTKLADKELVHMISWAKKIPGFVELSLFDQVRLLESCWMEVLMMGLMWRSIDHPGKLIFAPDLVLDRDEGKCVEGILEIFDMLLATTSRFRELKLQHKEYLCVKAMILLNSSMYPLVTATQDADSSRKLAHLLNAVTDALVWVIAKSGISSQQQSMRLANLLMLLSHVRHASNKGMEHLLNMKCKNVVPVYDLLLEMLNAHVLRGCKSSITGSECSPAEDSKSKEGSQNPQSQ
Nonstructural protein 1, sequence (Q194T2 whole entry): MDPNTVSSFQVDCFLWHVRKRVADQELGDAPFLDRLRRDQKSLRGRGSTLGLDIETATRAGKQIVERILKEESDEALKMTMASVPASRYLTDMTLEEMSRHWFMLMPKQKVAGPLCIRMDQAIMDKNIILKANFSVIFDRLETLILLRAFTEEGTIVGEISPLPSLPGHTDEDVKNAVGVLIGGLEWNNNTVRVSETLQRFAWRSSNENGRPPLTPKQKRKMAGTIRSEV

In the case of `CCCCn1c(=N)n(CC(O)COc2cccc(C)c2)c2ccccc21` (stereo not given), the EC50 [1] is reported as 5.24 µM (active), the EC50 [2] is reported as 5.56 µM (active) and the CC50 [3] is reported as 40.2 µM (active).

With `O=C(CNC(=O)c1ccc(-c2ccccc2)cc1)OCc1c(F)cccc1Cl` the IC50 [4] was 11.7 µM (not active) and the IC50 [5] was > 111 µM (not active).

For `O=c1[nH]c(CN2CCN(S(=O)(=O)c3ccc4ccccc4c3)CC2)nc2ccccc12`, the IC50 [4] was 5.56 µM (active) and the IC50 [5] was > 111 µM (not active).

In the case of `CN(C)c1ccc(NC(=S)c2ccccn2)cc1`, the EC50 [1] is reported as 136 µM (active), the EC50 [6] is reported as 0.52 µM (active) and the IC50 [7] is reported as 28.3 µM (active). For the same molecule, the EC50 [8] was > 50 µM (not active), the EC50 [2] was 92.2 µM (active) and the AC50 [9] was 2.84 µM (active).

For `COc1ccc(-n2ncc3c(NC(C)C)ncnc32)cc1`, the EC50 [6] was < 0.2 µM (active) and the EC50 [8] was > 50 µM (not active).

With `CC1CC(C)CN(CCCNC(=O)C2CCN(c3ncnc4c3sc3cccc(F)c34)CC2)C1` (stereo not given) the CC50 [3] was > 100 µM (active) and the IC50 [10] was > 20 µM (inactive).

In the case of `Cn1c(=O)[nH]c(=O)c2c1nc1n2CCCN1CCc1ccccc1`, the IC50 [11] is reported as > 50 µM (not active) and the IC50 [12] is reported as > 50 µM (not active).

For `O=C(NC(=S)Nc1ccc(F)c(Cl)c1)C1CC1`, the EC50 [13] was 0.861 µM (active).

For `CCc1ccc(NC(=O)C(=O)NCCN2CCN(Cc3ccc([N+](=O)[O-])cc3)CC2)cc1`, the CC50 [3] was 37.7 µM (active).

With `CCN=c1ccc(Br)cc(C(=O)/C=C/c2ccccc2Cl)c1O` the IC50 [12] was 3.11 µM (active).

For `N#C/C(=C/c1ccccc1)c1nn(CCO)c(N)c1C#N`, the EC50 [13] was 6.55 µM (active).

For `COc1ccc(Cl)cc1NC(=O)CN1CCN(S(=O)(=O)c2ccc(F)cc2)CC1`, the IC50 [4] was 16.4 µM (not active) and the IC50 [5] was > 111 µM (not active).

In the case of `Cc1oc(-c2ccc3c(c2)OCCO3)cc1C(=O)O`, the AC50 [14] is reported as 7.05 µM (active), the EC50 [15] is reported as 0.312 µM (active) and the EC50 [6] is reported as 1.25 µM (active). The AC50 [16] was > 52 µM (inactive), the EC50 [8] was > 50 µM (not active) and the AC50 [17] was 7.49 µM (active). The AC50 [18] was > 52 µM (inactive).

In the case of `C/C(=N\NC(=O)c1c(Br)cnn1C)c1ccc(NC(=O)c2ccc(F)cc2)cc1`, the IC50 [4] is reported as 3.62 µM (active) and the IC50 [5] is reported as > 111 µM (not active).

In the case of `C/C(=N\NC(=O)c1cccnc1)c1ccc(-n2ccnc2)cc1`, the EC50 [13] is reported as 5.46 µM (active).

From ChEMBL document CHEMBL1201862, “PubChem BioAssay data set” (2004)
